Converted amounts (≈) assume the structure as drawn.
Tests used:
[1] = Oral bioavailability in C57BL/6 mouse plasma at 50 mg/kg and measured upto 24 hrs by LC-MS/MS analysis; assay type: ADME, organism-based
[2] = Tmax in C57BL/6 mouse plasma at 50 mg/kg,po and measured upto 24 hrs by LC-MS/MS analysis; assay type: ADME, organism-based
[3] = Solubility in simulated intestinal fluid at pH 6.8 at 30 uM incubated for 90 mins by HPLC-UV analysis; assay type: ADME
[4] = Half life in C57BL/6 mouse plasma at 50 mg/kg,po and measured upto 24 hrs by LC-MS/MS analysis; assay type: ADME, organism-based
[5] = Solubility in simulated gastric fluid at pH 1.2 at 30 uM incubated for 90 mins by HPLC-UV analysis; assay type: ADME
[6] = Octanol/water partition coefficient, logD of the compound at pH 7.4 at 10 mM incubated for 16 hrs with shaking by HPLC-UV analysis; assay type: physicochemical
[7] = Cmax in C57BL/6 mouse plasma at 50 mg/kg,po and measured upto 24 hrs by LC-MS/MS analysis; assay type: ADME, organism-based; design: dose 50 mg/kg, time < 24 hrs, route po
[8] = Solubility of compound in PBS at pH 7.4 at 30 uM incubated for 90 mins by HPLC-UV analysis; assay type: physicochemical
[9] = AUC (0-6 hrs) in C57BL/6 mouse plasma at 50 mg/kg,po and measured upto 24 hrs by LC-MS/MS analysis; assay type: ADME, organism-based; design: dose 50 mg/kg, time < 24 hrs, route po
[10] = Dissociation constant, pKa of the compound at 10 mM incubated for 16 hrs with shaking by HPLC-UV analysis; assay type: physicochemical
[11] = Apparent permeability across apical to basolateral side in dog MDCK-MDR1 cells at 5 uM incubated for 60 mins by LC-MS/MS analysis; assay type: ADME, cell-based, Canis lupus familiaris
[12] = Solubility in simulated intestinal fluid at pH 6.8 at 30 uM incubated for 90 mins in presence of 0.5% SDS by HPLC-UV analysis; assay type: ADME
[13] = AUC (0-t) in C57BL/6 mouse at 61 mg/kg, po and measured for 4 to 10 hrs by LC-MS/MS analysis; assay type: ADME, organism-based; design: time lower 4 hrs, dose 61 mg/kg, time upper 10 hrs, route po; settings: in vivo
[14] = Cmax in C57BL/6 mouse at 61 mg/kg, po and measured upto 24 hrs by LC-MS/MS analysis; assay type: ADME, organism-based; design: dose 61 mg/kg, time < 24 hrs, route po; settings: in vivo
[15] = Terminal half life in C57BL/6 mouse at 61 mg/kg, po and measured upto 24 hrs by LC-MS/MS analysis; assay type: ADME, organism-based; settings: in vivo, read-out: beta t1/2 (converted)
[16] = AUC (0-infinity) in C57BL/6 mouse at 61 mg/kg, po and measured upto 24 hrs by LC-MS/MS analysis; assay type: ADME, organism-based; design: dose 61 mg/kg, time < 24 hrs, route po; settings: in vivo
[17] = Solubility in simulated gastric fluid at pH 1.2 at 30 uM incubated for 90 mins in presence of 0.5% SDS by HPLC-UV analysis; assay type: ADME
[18] = Solubility of compound in PBS at pH 9.0 at 30 uM incubated for 90 mins by HPLC-UV analysis; assay type: physicochemical
[19] = Cmax in C57BL/6 mouse at 80 mg/kg, po and measured upto 24 hrs by LC-MS/MS analysis; assay type: ADME, organism-based; design: time < 24 hrs, dose 80 mg/kg, route po; settings: in vivo
[20] = Apparent permeability of compound at 20 mM and measured after 16 hrs by PAMPA assay; assay type: ADME
[21] = target: Epidermal growth factor receptor (Homo sapiens, UniProt P00533); assay: Inhibition of human EGFR
[22] = Terminal half life in C57BL/6 mouse at 80 mg/kg, po and measured upto 24 hrs by LC-MS/MS analysis; assay type: ADME, organism-based; settings: in vivo, read-out: beta t1/2 (converted)
[23] = AUC (0-t) in C57BL/6 mouse at 80 mg/kg, po and measured for 4 to 10 hrs by LC-MS/MS analysis; assay type: ADME, organism-based; design: time upper 10 hrs, dose 80 mg/kg, time lower 4 hrs, route po; settings: in vivo
[24] = AUC (0-infinity) in C57BL/6 mouse at 80 mg/kg, po and measured upto 24 hrs by LC-MS/MS analysis; assay type: ADME, organism-based; design: time < 24 hrs, dose 80 mg/kg, route po; settings: in vivo
[25] = Prodrug conversion in C57BL/6 mouse colon assessed as (S)-2-(2-chloro-6-methylbenzamido)-3-(4-(1,3,6-trimethyl-2,4-dioxo-1,2,3,4-tetrahydropyrimidin-5-yl)phenyl)propanoic acid metabolite level at 100 mg/kg, po and measured after 6 hrs LC-MS/MS analysis; assay type: ADME, organism-based; settings: in vivo
[26] = Oral bioavailability in C57BL/6 mouse plasma at 63.5 mg/kg and measured upto 24 hrs by LC-MS/MS analysis; assay type: ADME, organism-based
[27] = Prodrug conversion in C57BL/6 mouse plasma assessed as (S)-2-(2-chloro-6-methylbenzamido)-3-(4-(1,3,6-trimethyl-2,4-dioxo-1,2,3,4-tetrahydropyrimidin-5-yl)phenyl)propanoic acid metabolite level at 100 mg/kg, po and measured after 6 hrs LC-MS/MS analysis; assay type: ADME, organism-based; settings: in vivo
[28] = Prodrug conversion in C57BL/6 mouse plasma assessed as Cmax of (S)-2-(2-chloro-6-methylbenzamido)-3-(4-(1,3,6-trimethyl-2,4-dioxo-1,2,3,4-tetrahydropyrimidin-5-yl)phenyl)propanoic acid metabolite at 63.5 mg/kg,po and measured upto 24 hrs by LC-MS/MS analysis; assay type: ADME, organism-based; design: dose 63.5 mg/kg, time < 24 hrs, route po; settings: in vivo
[29] = Prodrug conversion in C57BL/6 mouse plasma assessed as Tmax of (S)-2-(2-chloro-6-methylbenzamido)-3-(4-(1,3,6-trimethyl-2,4-dioxo-1,2,3,4-tetrahydropyrimidin-5-yl)phenyl)propanoic acid metabolite at 63.5 mg/kg,po and measured upto 24 hrs by LC-MS/MS analysis; assay type: ADME, organism-based; settings: in vivo
[30] = Prodrug conversion in C57BL/6 mouse colon assessed as (S)-2-(2-chloro-6-methylbenzamido)-3-(4-(1,3,6-trimethyl-2,4-dioxo-1,2,3,4-tetrahydropyrimidin-5-yl)phenyl)propanoic acid metabolite level at 100 mg/kg, po and measured after 3 hrs LC-MS/MS analysis; assay type: ADME, organism-based; settings: in vivo
[31] = Prodrug conversion in C57BL/6 mouse plasma assessed as(S)-2-(2-chloro-6-methylbenzamido)-3-(4-(1,3,6-trimethyl-2,4-dioxo-1,2,3,4-tetrahydropyrimidin-5-yl)phenyl)propanoic acid metabolite level at 100 mg/kg, po and measured after 3 hrs LC-MS/MS analysis; assay type: ADME, organism-based; settings: in vivo
[32] = Prodrug conversion in C57BL/6 mouse plasma assessed as half life of (S)-2-(2-chloro-6-methylbenzamido)-3-(4-(1,3,6-trimethyl-2,4-dioxo-1,2,3,4-tetrahydropyrimidin-5-yl)phenyl)propanoic acid metabolite at 63.5 mg/kg,po and measured upto 24 hrs by LC-MS/MS analysis; assay type: ADME, organism-based; settings: in vivo
[33] = Prodrug conversion in C57BL/6 mouse plasma assessed as AUC (0 to 6 hrs) of (S)-2-(2-chloro-6-methylbenzamido)-3-(4-(1,3,6-trimethyl-2,4-dioxo-1,2,3,4-tetrahydropyrimidin-5-yl)phenyl)propanoic acid metabolite at 63.5 mg/kg,po and measured upto 24 hrs by LC-MS/MS analysis; assay type: ADME, organism-based; design: time < 24 hrs, dose 63.5 mg/kg, route po; settings: in vivo

Sequence of Epidermal growth factor receptor (P00533 whole entry): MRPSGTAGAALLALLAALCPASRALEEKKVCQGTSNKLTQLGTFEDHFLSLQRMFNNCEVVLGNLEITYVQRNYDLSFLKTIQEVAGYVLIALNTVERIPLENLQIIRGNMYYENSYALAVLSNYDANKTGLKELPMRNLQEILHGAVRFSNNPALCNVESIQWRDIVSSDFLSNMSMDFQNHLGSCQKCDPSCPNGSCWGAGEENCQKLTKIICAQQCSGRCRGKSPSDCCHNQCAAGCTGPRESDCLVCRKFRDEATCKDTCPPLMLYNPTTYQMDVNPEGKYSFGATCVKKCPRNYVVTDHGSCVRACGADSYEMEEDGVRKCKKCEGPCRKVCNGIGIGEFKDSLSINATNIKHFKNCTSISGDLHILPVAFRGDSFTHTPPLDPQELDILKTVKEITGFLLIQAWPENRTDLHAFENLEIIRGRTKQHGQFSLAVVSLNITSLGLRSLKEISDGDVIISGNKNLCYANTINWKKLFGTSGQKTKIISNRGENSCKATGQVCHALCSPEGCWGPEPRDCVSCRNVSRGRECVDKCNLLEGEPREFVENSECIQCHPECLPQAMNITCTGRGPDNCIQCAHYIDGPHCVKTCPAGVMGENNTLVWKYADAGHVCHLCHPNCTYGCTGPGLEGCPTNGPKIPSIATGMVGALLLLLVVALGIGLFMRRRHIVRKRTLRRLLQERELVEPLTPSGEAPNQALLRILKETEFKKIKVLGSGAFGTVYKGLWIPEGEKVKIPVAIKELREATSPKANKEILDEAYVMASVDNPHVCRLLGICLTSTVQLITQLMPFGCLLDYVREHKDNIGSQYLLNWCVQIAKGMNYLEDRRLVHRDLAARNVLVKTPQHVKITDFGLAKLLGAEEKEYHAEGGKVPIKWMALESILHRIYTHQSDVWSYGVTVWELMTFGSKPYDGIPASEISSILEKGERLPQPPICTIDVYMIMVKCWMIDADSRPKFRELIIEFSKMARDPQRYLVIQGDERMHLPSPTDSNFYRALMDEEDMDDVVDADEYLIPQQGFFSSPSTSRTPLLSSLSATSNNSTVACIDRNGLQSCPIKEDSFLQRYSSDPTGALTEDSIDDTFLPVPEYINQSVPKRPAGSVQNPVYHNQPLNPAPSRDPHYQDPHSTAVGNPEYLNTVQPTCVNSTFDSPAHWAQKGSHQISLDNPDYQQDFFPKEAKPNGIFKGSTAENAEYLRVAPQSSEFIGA

solubility at 1.5 h, 30 µM [3] [µg/mL]	solubility at 1.5 h, 30 µM [5] [µg/mL]	logD at 16 h, 10000 µM [6]	solubility at 1.5 h, 30 µM [8] [µg/mL]	pKa at 16 h, 10000 µM [10]	Papp A→B at 1 h, 5 µM [11] [×10⁻⁶ cm/s]	solubility at 1.5 h, 30 µM [12] [µg/mL]	half-life [15] [h]	solubility at 1.5 h, 30 µM [17] [µg/mL]	solubility at 1.5 h, 30 µM [18] [µg/mL]	Papp at 16 h, 20000 µM [20] [×10⁻⁶ cm/s]	Compound	further results
91.9 (≈ 196 µM)	94.7 (≈ 202 µM)	-1.1	95.4 (≈ 203 µM)	3.4	1.3						Cc1cccc(Cl)c1C(=O)N[C@@H](Cc1ccc(-c2c(C)n(C)c(=O)n(C)c2=O)cc1)C(=O)O	bioavailability [1]: < 1%; Tmax [2]: 1 h; half-life [4]: 0.67 h; Cmax [7]: 425 ng/mL; AUC(0-t) at 24 h [9]: 616 ng·h/mL
51.7 (≈ 155 µM)	49.4 (≈ 148 µM)		1.3 (≈ 3.9 µM)	4.51		63.9	1.9	23.6	1.53 (≈ 4.58 µM)		COc1cc2ncnc(Nc3ccc(F)c(Cl)c3)c2cc1OC	AUC(0-t) [13]: 25500 ng·h/mL; Cmax [14]: 7440 ng/mL; AUC(0-inf) [16]: 26300 ng·h/mL
65.4 (≈ 142 µM)	87.9 (≈ 191 µM)		19.8 (≈ 43.1 µM)	5		80.8	1.19	56	45.4 (≈ 98.7 µM)	7.45	COc1cc2ncnc(Nc3ccc(O[C@H]4CO[C@H]5[C@@H]4OC[C@@H]5O)c(Cl)c3)c2cc1OC	Cmax [19]: 30100 ng/mL; IC50 [21]: 5.3 nM; half-life [22]: 1.19 h; AUC(0-t) [23]: 44500 ng·h/mL; AUC(0-inf) [24]: 44500 ng·h/mL
99.6 (≈ 167 µM)	126 (≈ 210 µM)	1.2	107 (≈ 179 µM)	7.9	2.5					1.68	Cc1cccc(Cl)c1C(=O)N[C@@H](Cc1ccc(-c2c(C)n(C)c(=O)n(C)c2=O)cc1)C(=O)O[C@H]1CO[C@H]2[C@@H]1OC[C@@H]2O	Drug metabolism [25]: 100000 ng/g; bioavailability [26]: 12%; Drug metabolism [27]: 200 ng/mL; Cmax [28]: 3193 ng/mL; Tmax [29]: 0.25 h; Drug metabolism [30]: 200000 ng/g; Drug metabolism [31]: 500 ng/mL; t1/2 [32]: 1.63 h; AUC [33]: 2100 ng·h/mL
